# Laboratory results taken from ChEMBL document CHEMBL1201862, “PubChem BioAssay data set” (2004).
#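 Briefly, cells in 96-well plates were exposed to five compound concentrations for 48 h, and endpoints were estimated by linear interpolation. Here, GI50 denotes the concentration required for 50% inhibition of growth.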 Activity calls are given as the source filed them. No stated cut-off is given here; in the data, active = GI50 up to about 1.1 µM and inactive = higher.
# Tests used:
# Test in all cases: growth of human tumour cells (NCI), 48 h
# ACHN = test system: ACHN
# BT-549 = test system: BT-549
# HCC 2998 = test system: HCC 2998
# HCT-15 = test system: HCT-15
# HT-29 = test system: HT-29
# IGROV-1 = test system: IGROV-1
# MCF7 = test system: MCF7
# MDA-MB-435 = test system: MDA-MB-435
# MDA-N = test system: MDA-N
# OVCAR-4 = test system: OVCAR-4
# OVCAR-5 = test system: OVCAR-5
# SK-MEL-28 = test system: SK-MEL-28
# SK-MEL-2 = test system: SK-MEL-2
# SN12C = test system: SN12C
# SNB-19 = test system: SNB-19
# SNB-75 = test system: SNB-75
# SR = test system: SR
# T47D = test system: T47D
# TK-10 = test system: TK-10
# OVCAR-3 = test system: OVCAR-3
Structure (SMILES),GI50 (ACHN),GI50 (BT-549),GI50 (HCC 2998),GI50 (HCT-15) [µM],GI50 (HT-29),GI50 (IGROV-1),GI50 (MCF7),GI50 (MDA-MB-435),GI50 (MDA-N),GI50 (OVCAR-4),GI50 (OVCAR-5),GI50 (SK-MEL-28),GI50 (SK-MEL-2),GI50 (SN12C),GI50 (SNB-19),GI50 (SNB-75),GI50 (SR),GI50 (T47D),GI50 (TK-10),GI50 (OVCAR-3)
CC(=O)Nc1ccc(-c2nc3ccccc3s2)cc1Cl,> 74 µM (inactive),> 75.9 µM (inactive),0.23 µM (active),41.4,> 95.5 µM (inactive),< 0.0217 µM (active),< 0.0399 µM (active),> 100 µM (inactive),> 100 µM (inactive),> 100 µM (inactive),0.171 µM (active),> 100 µM (inactive),> 100 µM (inactive),> 100 µM (inactive),67.5 µM (inactive),36.7 µM (inactive),> 100 µM (inactive),0.395 µM (active),0.0664 µM (active),–
N#CC(C#N)=CNC(=S)c1ccncc1,34.8 µM (inactive),11.2 µM (inactive),59.8 µM (inactive),37.4,46.9 µM (inactive),69.5 µM (inactive),76.9 µM (inactive),> 100 µM (inactive),> 100 µM (inactive),> 100 µM (inactive),> 100 µM (inactive),> 100 µM (inactive),> 100 µM (inactive),87.5 µM (inactive),41.6 µM (inactive),35.4 µM (inactive),18.7 µM (inactive),> 100 µM (inactive),–,0.117 µM (active)
COc1ccc2c(c1)N=C1CSC(c3ccccc3Cl)N1C2 (stereo not drawn),11.8 µM (inactive),43.2 µM (inactive),5.07 µM (inactive),9.68,4.82 µM (inactive),–,12.2 µM (inactive),11.5 µM (inactive),6.17 µM (inactive),14.1 µM (inactive),8.97 µM (inactive),17.6 µM (inactive),15.8 µM (inactive),11.1 µM (inactive),19 µM (inactive),9.91 µM (inactive),0.929 µM (active),19.5 µM (inactive),17.1 µM (inactive),–
Cc1ccsc1C(=O)C(CC(=O)c1cccs1)c1ccsc1 (stereo not drawn),> 100 µM (inactive),66.5 µM (inactive),> 100 µM (inactive),> 100,93.1 µM (inactive),> 100 µM (inactive),76.2 µM (inactive),> 100 µM (inactive),64.6 µM (inactive),> 100 µM (inactive),> 100 µM (inactive),> 100 µM (inactive),–,> 100 µM (inactive),> 100 µM (inactive),> 100 µM (inactive),62.8 µM (inactive),14.5 µM (inactive),> 100 µM (inactive),> 100 µM (inactive)
CCc1nn(CN2CCN(C)CC2)c(=S)n1/N=C\c1ccc(-c2ccc([N+](=O)[O-])cc2)o1,36.9 µM (inactive),37 µM (inactive),48.5 µM (inactive),61.9,> 100 µM (inactive),89.9 µM (inactive),40.5 µM (inactive),66.1 µM (inactive),94 µM (inactive),44 µM (inactive),> 100 µM (inactive),–,74.3 µM (inactive),58.2 µM (inactive),33.7 µM (inactive),–,64.1 µM (inactive),19.9 µM (inactive),28.5 µM (inactive),30.6 µM (inactive)
Cc1nc(-n2[nH]c(C)c(CCO)c2=O)[nH]c(=O)c1CCO,> 100 µM (inactive),> 100 µM (inactive),> 100 µM (inactive),> 100,> 100 µM (inactive),> 100 µM (inactive),> 100 µM (inactive),> 100 µM (inactive),> 100 µM (inactive),> 100 µM (inactive),> 10 µM (inactive),> 100 µM (inactive),–,> 100 µM (inactive),> 100 µM (inactive),> 100 µM (inactive),> 100 µM (inactive),> 100 µM (inactive),> 100 µM (inactive),> 100 µM (inactive)
Clc1nc(-c2ccccc2)nc(Cl)c1Cl,4.94 µM (inactive),20.6 µM (inactive),7.71 µM (inactive),7.38,9.89 µM (inactive),8.69 µM (inactive),8.15 µM (inactive),12.9 µM (inactive),13 µM (inactive),16 µM (inactive),15.8 µM (inactive),16.8 µM (inactive),–,16.8 µM (inactive),17.1 µM (inactive),15.7 µM (inactive),2.69 µM (inactive),10 µM (inactive),26.7 µM (inactive),8.38 µM (inactive)
COc1ccc(NC(=O)C2=C(SC)C(C#N)C(=O)N=C2N)cc1 (stereo not drawn),> 100 µM (inactive),> 100 µM (inactive),> 100 µM (inactive),> 100,> 100 µM (inactive),20.3 µM (inactive),> 100 µM (inactive),> 100 µM (inactive),> 100 µM (inactive),> 100 µM (inactive),> 100 µM (inactive),> 100 µM (inactive),> 100 µM (inactive),> 100 µM (inactive),> 100 µM (inactive),–,> 100 µM (inactive),49.4 µM (inactive),> 100 µM (inactive),> 100 µM (inactive)
Cc1ccc(C(=O)/C=C2\Nc3ccccc3SC2=O)c(C)c1,28.6 µM (inactive),6.9 µM (inactive),59.3 µM (inactive),20.8,45.6 µM (inactive),29.8 µM (inactive),31 µM (inactive),56.2 µM (inactive),62.2 µM (inactive),26.5 µM (inactive),> 100 µM (inactive),51.1 µM (inactive),42.1 µM (inactive),40.1 µM (inactive),45.3 µM (inactive),–,28.3 µM (inactive),61.9 µM (inactive),> 100 µM (inactive),34.1 µM (inactive)
CC(C)(C)c1ccc(-c2nc3ccc(Cl)cc3c(=O)o2)cc1,14.1 µM (inactive),21.2 µM (inactive),12.8 µM (inactive),13.9,23.1 µM (inactive),18.2 µM (inactive),25 µM (inactive),24.1 µM (inactive),25.2 µM (inactive),20.5 µM (inactive),25.1 µM (inactive),21.3 µM (inactive),18.5 µM (inactive),27.1 µM (inactive),14.5 µM (inactive),26.8 µM (inactive),16.4 µM (inactive),20.5 µM (inactive),41.3 µM (inactive),7.78 µM (inactive)
COc1ccc(OC)c(CC(=O)c2ccc(O)c(C(=O)NCCc3ccc(F)cc3)c2)c1,10.5 µM (inactive),12 µM (inactive),4.63 µM (inactive),2.3,9.86 µM (inactive),3.27 µM (inactive),2.99 µM (inactive),0.615 µM (active),0.498 µM (active),4.06 µM (inactive),7.36 µM (inactive),6.41 µM (inactive),2.96 µM (inactive),–,3.79 µM (inactive),2.55 µM (inactive),0.502 µM (active),2.8 µM (inactive),7.23 µM (inactive),1.43 µM (inactive)
